This assay concerns the target Proprotein convertase subtilisin/kexin type 9 (Homo sapiens, UniProt Q8NBP7). Briefly: In Vitro Screening Experiment: 1. […] Data Analysis:Date was analyzed with Prismsoftware (nonlinear regression (Sigmoidal dose-response-variable slope)Inhibition ratio %=100*(Sample reading−LC reading)/(HC reading−LC reading).

Sequence of Proprotein convertase subtilisin/kexin type 9 (Q8NBP7 31-152 limits assumed): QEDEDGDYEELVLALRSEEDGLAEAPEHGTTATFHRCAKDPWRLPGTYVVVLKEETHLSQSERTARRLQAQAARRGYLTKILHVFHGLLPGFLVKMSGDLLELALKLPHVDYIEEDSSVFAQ
Sequence of Proprotein convertase subtilisin/kexin type 9 (Q8NBP7 153-692 limits assumed): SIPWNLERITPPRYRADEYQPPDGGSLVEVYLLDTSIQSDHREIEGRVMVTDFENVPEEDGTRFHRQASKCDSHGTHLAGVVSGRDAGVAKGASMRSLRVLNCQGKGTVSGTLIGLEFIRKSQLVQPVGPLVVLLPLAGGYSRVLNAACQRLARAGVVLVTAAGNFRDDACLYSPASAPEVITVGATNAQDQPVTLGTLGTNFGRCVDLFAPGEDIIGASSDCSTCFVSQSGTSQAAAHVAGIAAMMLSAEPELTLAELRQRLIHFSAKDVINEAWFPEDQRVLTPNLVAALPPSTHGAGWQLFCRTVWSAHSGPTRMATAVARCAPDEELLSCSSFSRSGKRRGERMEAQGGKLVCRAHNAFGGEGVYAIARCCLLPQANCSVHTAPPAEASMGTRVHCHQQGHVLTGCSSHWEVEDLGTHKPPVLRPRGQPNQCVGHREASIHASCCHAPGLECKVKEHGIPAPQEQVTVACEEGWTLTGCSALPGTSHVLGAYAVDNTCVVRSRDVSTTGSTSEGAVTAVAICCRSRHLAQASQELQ

In the case of `CCc1cccnc1N(C(=O)c1ccc(C2=NOC(C)(C)C2=O)cc1)[C@@H]1CCCNC1`, the IC50 is under 10 µM.

Regarding `Cc1cccnc1N(C(=O)c1ccc(C2=NOC(C)(C)C2(C)O)cc1)[C@@H]1CCCNC1` (some centres not stated), the IC50 was under 10 µM.

With `CC1(C)ON=C(c2ccc(C(=O)N(c3nccc4ccccc34)[C@@H]3CCCNC3)cc2)C1=O`, the IC50 was under 10 µM.

Regarding `CC1(C)ON=C(c2ccc(C(=O)N(c3ncccc3C3CC3)[C@@H]3CCCNC3)cc2)C1=O`, the half-inhibitory concentration (IC50) is under 10 µM.

`COC1C(c2ccc(C(=O)N(c3ncccc3Cl)[C@@H]3CCCNC3)cc2)=NOC1(C)C` (some centres not stated): the IC50 is under 10 µM.

Take `Cc1cccnc1N(C(=O)c1ccc(C2=NOC(C)(C)C2=O)cn1)[C@@H]1CCCNC1`: the IC50 was under 10 µM.

Turning to `COCCOC1C(c2ccc(C(=O)N(c3ncccc3C)[C@@H]3CCCNC3)cc2)=NOC1(C)C` (some centres not stated), the IC50 is under 10 µM.

In general, IC50 refers to the point on the concentration scale where inhibition reaches its midpoint.

Values taken from ChEMBL document CHEMBL5727468, “Piperidine compounds as PCSK9 inhibitors” (2019).
